Source: patent publication US20240041038A1 (priority 2020, published 2024)
Bridges are numbered along the chain shown (N, C = ends). Where no end group is shown, it is not given here.

How the values were obtained:
[1] = tested on: lesser mealworm (Alphitobius diaperinus); test: whole plant or invertebrate; settings: 96 h, read-out: mortality rate
[2] = tested on: corn earworm (Helicoverpa zea); settings: in vivo
[3] = tested on: corn earworm (Helicoverpa zea); settings: in vivo; remark: listed apart in the source
[4] = tested on: beet armyworm (Spodoptera exigua); settings: in vivo

With OB(O)O [boric acid] the mortality at 2500 µg/mL [1] was 10.3%.

With C/C=C(\C)C(=O)O[C@H]1C[C@@H](OC(C)=O)[C@@]2(C(=O)OC)CO[C@H]3[C@@H](O)[C@@](C)([C@]45O[C@@]4(C)[C@H]4C[C@@H]5O[C@@H]5OC=C[C@@]54O)[C@H]4[C@]1(CO[C@]4(O)C(=O)OC)[C@@H]32 [Azadirachtin] the mortality [2] was 37.5%.

With O=C(NC(=O)c1c(F)cccc1F)Nc1ccc(OC(F)(F)C(F)OC(F)(F)F)c(Cl)c1 (centres unmarked) [Novaluron] the “greater than additive insecticidal effect when combined with U+2-ACTX-Hv1a” value [3] was “Novaluron*”.

“GSCADINGACKSDCDCCGDSVTCDCYWSDSCKCRESNFKIGMAIRKKFC (disulfide 3-17, 10-23, 14-49, 16-33, 25-31) [Γ-CNTX-Pn1a]” showed a mortality [4] of 6% and a mortality rate [4] of 3%.
